These are literature values, as cited in patent US6455086B1, “Microorganism reduction methods and compositions for food cleaning” (The Procter & Gamble Company, priority 1999, dated 2002).

Where a name gives a salt, the structure may show the parent alone.

Data set [1] deals with typical Gram negative and positive bacteria, fungi and yeasts. The following applies: used at a level from about 0.001% to about 0.5% by weight of the usage composition.

Turning to `Cn1sc2c(c1=O)CCC2` [Promexal, 2-methyl-4,5-trimethylene4-isothiazolin-3-one], the “effectiveness against typical Gram negative and positive bacteria, fungi and yeasts” value in data set [1] was “effective”. As for `O=c1[nH]sc2ccccc12` [Proxel, 1,2-benzisothiazolin-3-one], the “effectiveness against typical Gram negative and positive bacteria, fungi and yeasts” value in data set [1] is listed as “effective”. `[H]/N=C(\N/C(=N/[H])NCCCCCCNC(=N)NC(=N)Nc1ccc(Cl)cc1)Nc1ccc(Cl)cc1` [chlorhexidine diacetate salt, 1,1′-hexamethylene bis(5-(p-chlorophenyl)biguanide)]: the solubility in water entry is reported as “about 1.8%”. As for `[H]/N=C(\N/C(=N/[H])NCCCCCCNC(=N)NC(=N)Nc1ccc(Cl)cc1)Nc1ccc(Cl)cc1` [chlorhexidine digluconate salt, 1,1′-hexamethylene bis(5-(p-chlorophenyl)biguanide)], the solubility in water result is on record as “about 70%”.
